Paper PMC4666608, “Metabolic Profiling of Chicken Embryos Exposed to Perfluorooctanoic Acid (PFOA) and Agonists to Peroxisome Proliferator-Activated Receptors” (PLoS ONE, 2015)
Marks after values point to notes of the source that are not given here.

System: chicken embryos
Test: Metabolic profiling of allantoic fluid (GC-MS, LC-MS, OPLS-DA)
Assay type: in vivo, Gallus gallus domesticus
Conditions: 150 μg/egg
Description: Controls were injected with 20 μL vehicle only (DMSO).
Plasma was collected and stored at -70°C.
Metabolites in allantoic fluid and blood plasma were analyzed using gas chromatography-mass spectrometry (GC-MS) and liquid chromatography-mass spectrometry (LC-MS) as described in S1 Methods. Prior to GC-MS and LC-MS analysis, allantoic fluid (100 μL) and blood plasma (50 μL) were extracted. To each sample, 900 μL (allantoic fluid) or 450 μL (blood plasma) of extraction buffer (90/10 v/v methanol:water) including all internal standards were added. Standards for GC-MS were proline, succinic acid, glutamic acid, salicylic acid, alpha-ketoglutarate, putrescine, myristic acid, hexadecanoic acid, cholesterol, and sucrose. Standards for LC-MS were Val-Tyr-Val, Leu-enkephalin, sulfadimethoxine and reserpine. Samples were homogenized by shaking in a bead mill at a frequency of 30 Hz for 3 minutes and proteins were precipitated at +4°C on ice. The samples were centrifuged at +4°C, 14000 rpm, for 10 min. Then, 200 μL supernatant was transferred to a GC microvial and 200 μL was transferred to an LC microvial, and solvents were evaporated. Samples from the four replicate experiments were analyzed using in chronological order and within each replicate experiment the run order of the individual samples was randomized.
Multivariate statistical analyses of metabolite profiles were performed using the software package SIMCA-P version 13.0 (Umetrics, Umeå, Sweden). Data was centered and scaled to variance 1 (UV scaling) prior to modelling. To reduce unintended systematic variation caused by sample processing and instrument drift, GC-MS and LC-MS metabolite amounts (expressed as the area under the chromatographic peak) were normalized by Orthogonal Partial Least Squares analysis (O2PLS) prior to multivariate data analysis. O2PLS finds common (predictive) and unique (orthogonal) variation in two data matrices. If applied to find the common variation between the data matrix containing the measured metabolite concentrations and a matrix containing only the internal standards, the only common (predictive) variation expected is due to the unintended systematic variation. By deleting the contribution of the predictive latent variables, that variation can be removed from the data. Models obtained after this normalization contain in general less latent variables, and this simplification helps when deciding on the number of latent variables to be used. Following normalization, GC-MS and LC-MS data were analyzed together. Initially, a global Principal Component Analysis (PCA) was performed to get an overview of groups and trends and to identify outliers. Projections to latent structures by means of Orthogonal Partial Least Squares Discriminant Analysis (OPLS-DA) was used to model the relationship between the X-matrix (metabolite concentrations) and the Y matrix (class, i.e. exposure group or sex), and to find x-variables that were related to class belonging. OPLS-DA is a supervised prediction and regression method that rotates the projection plane to find the maximum covariance between the data and the class assignment. All groups were first analyzed together in a 5-class OPLS-DA and then each exposure group was analyzed against the control group in a 2-class OPLS-DA. Sex differences were analyzed both using the whole data set and in each group separately using 2-class OPLS-DA, with females and males as the two classes. Only variables with 80% or more nonzero values were included in the statistical models. […] The validity of each model was also checked using CV-ANOVA (ANOVA of the cross-validated residuals). A significance level of p < 0.05 was used. For each model, R ^2 X, R ^2 Y and Q ^2 values were calculated, where R ^2 X is a measure of the fraction of x variation modeled in the extracted latent variables, R ^2 Y is a measure of the fraction of y variation modeled and Q ^2 is an estimate of the predictive ability of the model and is calculated by cross-validation. […]

[1] = GC, tentative 2-Oxovaleric acid

## CN(CCOc1ccc(CC2SC(=O)NC2=O)cc1)c1ccccn1 (centres unmarked) [Rosiglitazone, rosiglitazone, reference compound]
GC
  Mean concentration relative to control, feature Win004_C08: 1.2**
  Mean concentration relative to control, feature Win005_C07: 1.2*
  Mean concentration relative to control, feature Win008_C06: 1.7***
  Mean concentration relative to control, feature Win022_C01: 2.2***
  Mean concentration relative to control, feature Win023_C06: 1.8*
  Mean concentration relative to control, feature win006_C01: 2.3***
GC, tentative 1-Aminocyclopropanecarboxylic acid
  Mean concentration relative to control, feature Win008_C07: 1.1
GC, tentative 2-Oxoglutaric acid
  Mean concentration relative to control, feature Win023_C03: 2.5***
[1]
  Mean concentration relative to control, feature Win007_C09: 1.3***
  Mean concentration relative to control, feature Win008_C05: 1.4***
GC, tentative 3-Amino-2-piperidone
  Mean concentration relative to control, feature Win018_C04: 1
GC, tentative 3-Hydroxybutanoic acid
  Mean concentration relative to control, feature Win007_C03: 1.0
GC, tentative Cystathionine
  Mean concentration relative to control, feature Win042_C02: 1.1
GC, tentative Ketoleucine
  Mean concentration relative to control, feature Win009_C03: 1.3**
GC, tentative Malonic acid
  Mean concentration relative to control, feature Win008_C04: 1.0
GC, tentative Oxalic acid
  Mean concentration relative to control, feature Win005_C03: 0.7**
GC, tentative Succinic acid
  Mean concentration relative to control, feature Win013_C05: 1.1*
LC
  Mean concentration relative to control, feature 134.0239@1.1350567: 1.4*
  Mean concentration relative to control, feature 145.0538@3.072527: 1.2
  Mean concentration relative to control, feature 147.0328@3.0722888: 1.2
  Mean concentration relative to control, feature 160.0323@1.1950632: 1.2***
  Mean concentration relative to control, feature 173.0488@3.0734746: 1.2
  Mean concentration relative to control, feature 176.0952@1.3890611: 0.4*
  Mean concentration relative to control, feature 178.0428@1.7582192: 1.3**
  Mean concentration relative to control, feature 180.0048@4.421465: 0.9***
  Mean concentration relative to control, feature 189.1159@1.9209185: 0.7**
  Mean concentration relative to control, feature 197.0639@2.1181405: 1.2***
  Mean concentration relative to control, feature 201.012@3.046474: 1.1
  Mean concentration relative to control, feature 202.0429@2.9548414: 1.3***
  Mean concentration relative to control, feature 205.0533@4.421879: 0.9***
  Mean concentration relative to control, feature 214.016@2.1190732: 1.2**
  Mean concentration relative to control, feature 226.0107@4.421457: 0.9***
  Mean concentration relative to control, feature 236.0816@3.0720985: 1.2
  Mean concentration relative to control, feature 241.0551@2.3510706: 1.3***
  Mean concentration relative to control, feature 243.1118@2.1537287: 0.7***
  Mean concentration relative to control, feature 244.9972@4.421603: 0.96*
  Mean concentration relative to control, feature 245.1563@2.2907295: 0.7*
  Mean concentration relative to control, feature 250.0981@3.072492: 1.2
  Mean concentration relative to control, feature 262.0978@2.7961144: 1.3*
  Mean concentration relative to control, feature 263.0855@2.2847009: 1.4**
  Mean concentration relative to control, feature 270.0441@1.1407775: 0.7*
  Mean concentration relative to control, feature 278.0928@3.0723689: 1.2
  Mean concentration relative to control, feature 279.1248@2.796395: 1.4*
  Mean concentration relative to control, feature 280.1425@2.730277: 1.1**
  Mean concentration relative to control, feature 288.1166@2.9551322: 1.7**
  Mean concentration relative to control, feature 289.1012@3.249983: 1.2
  Mean concentration relative to control, feature 289.173@7.5030584: 0.7***
  Mean concentration relative to control, feature 294.1242@2.3692534: 0.7***
  Mean concentration relative to control, feature 302.0508@3.0722616: 1.1
  Mean concentration relative to control, feature 305.1682@5.353517: 1.2
  Mean concentration relative to control, feature 305.1684@5.2955093: 1.2
  Mean concentration relative to control, feature 308.073@4.4211636: 0.9***
  Mean concentration relative to control, feature 310.1181@1.5090439: 0.7***
  Mean concentration relative to control, feature 316.0389@3.0725708: 1.2
  Mean concentration relative to control, feature 320.0626@3.0729218: 1.1
  Mean concentration relative to control, feature 325.1114@2.1190624: 1.6***
  Mean concentration relative to control, feature 325.1115@2.3554378: 1.5**
  Mean concentration relative to control, feature 333.1335@2.8639288: 0.7***
  Mean concentration relative to control, feature 333.2005@6.5291867: 1.1
  Mean concentration relative to control, feature 335.1866@4.508565: 0.7***
  Mean concentration relative to control, feature 337.1651@1.8737898: 1.6***
  Mean concentration relative to control, feature 344.1424@2.348947: 1.5**
  Mean concentration relative to control, feature 348.0553@3.0730357: 1.1
  Mean concentration relative to control, feature 349.1651@2.4087605: 1
  Mean concentration relative to control, feature 357.1997@6.9691257: 0.8*
  Mean concentration relative to control, feature 371.1513@3.0009465: 1.4**
  Mean concentration relative to control, feature 375.1819@3.672254: 0.9
  Mean concentration relative to control, feature 394.167@3.9552917: 0.7*
  Mean concentration relative to control, feature 414.1482@2.118972: 1.5***
  Mean concentration relative to control, feature 466.0837@2.1187525: 1.5***
  Mean concentration relative to control, feature 488.0753@4.419585: 0.8***
  Mean concentration relative to control, feature 498.1003@2.1184251: 1.4***
  Mean concentration relative to control, feature 507.1682@2.1238236: 1.3*
  Mean concentration relative to control, feature 580.1426@3.0726147: 1.3
  Mean concentration relative to control, feature 582.1578@2.1747615: 1.8***
  Mean concentration relative to control, feature 588.1751@2.1182237: 1.5***
  Mean concentration relative to control, feature 594.1337@3.0724604: 1.3
  Mean concentration relative to control, feature 604.1486@2.1174603: 1.5***
  Mean concentration relative to control, feature 623.183@2.1249466: 1.8***
  Mean concentration relative to control, feature 668.2625@6.4379454: 1.04**
LC, suggested C3H10NO4P
  Mean concentration relative to control, feature 155.0353@0.6447272: 0.4*
LC, suggested C10H12N5O7P
  Mean concentration relative to control, feature 345.0497@1.1234403: 1.6***
LC, suggested C13H11N3O4S2
  Mean concentration relative to control, feature 337.0259@4.4213357: 0.9***
LC, suggested C13H20N4O7
  Mean concentration relative to control, feature 344.1427@2.1164653: 1.6***
LC, suggested C13H25N5O5
  Mean concentration relative to control, feature 331.184@6.373359: 1
LC, suggested C16H31N3O4S
  Mean concentration relative to control, feature 361.2026@5.6644735: 0.7**
